From patent US4517202A, “Prostaglandin analogues” (May & Baker Limited, priority 1982, dated 1985)
Values after ≈ are worked out from the molar mass of the structure shown. Where two headings read alike, the source gives them in different places.

Columns and labels:
[1] = isomerisation of (Z)-isomer at ambient temperature; type: physicochemical
[2] = system: collagen-induced β-thromboglobulin release; assay: inhibition of collagen-induced β-thromboglobulin release in vitro in human blood; type: cell-based; conditions: read-out: ED50 (concentration which produced 50% inhibition of the β-thromboglobulin release)
diastolic blood pressure = assay: fall in diastolic blood pressure in anaesthetised rats; type: in vivo; conditions: rats anaesthetised with pentobarbitone; intravenously at a rate of 45 μg/kg animal body weight
Procedure: In other laboratory tests, compound B produced a 25% fall in diastolic blood pressure in rats (anaesthetised with pentobarbitone) when administered intravenously at a rate of 45 μg/kg animal body weight.

[3] = system: artery and some other kinds of smooth muscle; conditions: cited from earlier work
[4] = cited from earlier work
[5] = system: arachidonic acid-induced blood platelet aggregation of the human; conditions: human platelets; cited from earlier work
blood platelets = conditions: cited from earlier work

O=C(O)CCC/C=C1/C[C@H]2[C@H](CC[C@@H]2/C=C/[C@@H](O)C2CCCCC2)C1=O (relative stereo) [(Z)-isomer]
isomerisation back to the (E)-isomer [1]: slowly isomerised back to the (E)-isomer

O=C(O)CCC/C=C1\C[C@H]2[C@H](CC[C@@H]2/C=C/[C@@H](O)C2CCCCC2)C1=O (relative stereo) [Compound B, (±)-(5E,13E)-(9S,15S)-6a-oxo-6,9-methano-15-cyclohexyl-15-hydroxy-16,17,18,19,20-pentanorprosta-5,13-dienoic acid]
IC50 [2]: 5 µg/mL (≈ 13.9 µM) | fall in diastolic blood pressure (diastolic blood pressure): 25%

CCCCCC(O)/C=C/[C@H]1CC[C@@H]2C(=O)/C(=C/CCCC(=O)O)C[C@@H]21 (relative stereo) [Compound E, (±)-(5E,13E)-(9S), [mixture of (15R) and (15S)]-6a-oxo-6,9-methano-15-hydroxyprosta-5,13-dienoic acid]
IC50 [2]: 34 µg/mL

CCCCCC(O)/C=C/[C@H]1CC[C@@H]2C(=O)/C(=C\CCCC(=O)O)C[C@@H]21 (relative stereo) [Compound F, (±)-(5Z,13E)-(9S), [mixture of (15R) and (15S)]-6a-oxo-6,9-methano-15-hydroxyprosta-5,13-dienoic acid]
IC50 [2]: < 17 µg/mL

O=C(O)CCC/C=C1\C[C@H]2[C@H](CC[C@@H]2/C=C/C(O)C2CCCCC2)C1=O (relative stereo) [Compound I, (±)-(5E,13E)-(9S),[mixture of (15R) and (15S)]-6a-oxo-6,9-methano-15-cyclohexyl-15-hydroxy-16,17,18,19,20-pentanorprosta-5,13-dienoic acid]
IC50 [2]: < 17 µg/mL

CCCCC[C@H](O)/C=C/[C@@H]1[C@H]2C/C(=C/CCCC(=O)O)O[C@H]2C[C@H]1O [PGI2, (5Z,13E)-(9S,11R,15S)-6,9-epoxy-11,15-dihydroxyprosta-5,13-dienoic acid]
activity on the artery and some other kinds of smooth muscle [3]: strong relaxing activity | time to deactivation in a buffer solution ([4]; pH 7.6, 22° C.): 20 min | time to deactivation in a buffer solution ([4]; pH 7.6, 37° C.): 10 min | inhibition of arachidonic acid-induced blood platelet aggregation [5]: strongly inhibits

CCCCC[C@H](O)/C=C/[C@H]1O[C@H]2C[C@H](O2)[C@@H]1C/C=C\CCCC(=O)O [thromboxane A2]
activity on the artery and some other kinds of smooth muscle [3]: contracting activity | aggregating activity on blood platelets (blood platelets): aggregating activity
